Experimental data as given in publication PMC5831858, “Pharmacological characterisation of CR6086, a potent prostaglandin E2 receptor 4 antagonist, as a new potential disease-modifying anti-rheumatic drug” (Arthritis Research & Therapy, 2018).
Like-named read-outs stand apart in the source and are kept apart here.

Experiments:
IL-6 gene expression = IL-6 gene expression in THP-1 cells differentiated to macrophages; type: cell-based; conditions: Homo sapiens, LPS 10 ng/ml + PGE2 10 nM, read-out: IC50 transcription of IL-6
Experimental: (§1) The human monocyte cell line THP-1 was obtained from the ATCC and was grown according to the instructions provided. THP-1 monocytic cells were differentiated to macrophages with 100 nM phorbol 12-myristate 13-acetate (PMA) for 4 days. Macrophages were then stimulated with lipopolysaccharide (LPS) 10 ng/ml and PGE2 10 nM for 3 or 24 h. Total RNA was purified using the ABI Prism 6100 Nucleic Acid PrepStation (Applied Biosystems, Foster City, CA, USA) and retrotranscribed using the High-Capacity cDNA Reverse Transcription Kit (Thermo Fisher Scientific). RT-PCR analysis was performed using the Applied Biosystems 7500 Fast Real-Time PCR System using specific TaqMan assays (number Hs00174131_m1 for IL-6, number Hs00900054_m1 for vascular endothelial growth factor A [VEGFA]; Thermo Fisher Scientific) and, as an endogenous control, the 18S Pre-Developed TaqMan® Assay (Thermo Fisher Scientific). The data analysis, with normalisation on 18S amplified values, was done following Thermo Fisher Scientific’s specific instructions for gene expression relative quantification. All individual data are the result of at least three different analyses for each sample.

VEGF gene expression = VEGF gene expression in THP-1 cells differentiated to macrophages; type: cell-based; conditions: Homo sapiens, LPS 10 ng/ml + PGE2 10 nM, read-out: IC50 transcription of VEGF
Experimental: as §1

[1] = CR6086 pharmacokinetics in rats; type: in vivo, rat; conditions: for Cmax / AUC / Tmax: rat, plasma, oral; for AUC: read-out: AUC24; for Tmax: median
Experimental: CR6086 concentrations in rat plasma were determined by high-performance liquid chromatography (Agilent 1200 series; Agilent Technologies, Santa Clara, CA, USA) coupled with a triple-quadrupole mass spectrometer (API 4000 QTRAP; SCIEX, Concord, ON, Canada). A ZORBAX SB-C18 2.0 × 50-mm, 3.5-μm column (Agilent Technologies) in isocratic conditions was used with mobile phase 0.1% formic acid in water/acetonitrile (68:32 vol/vol). The method was linear within the dynamic range 1.0–10,000 ng/ml (lower to upper limit of quantification). CR6086 plasma protein binding was determined in the 0.2–200 μM concentration range using [^14C]CR6086 and equilibrium dialysis. EP4 receptor occupancy (RO) was calculated on the basis of CR6086 concentrations according to the following formula: RO%=Cave/Cave+Ki×100,
The pharmacokinetics of CR6086 were investigated in the animal species used as rheumatoid arthritis models, employing the same administration route and dose range. […] Therefore, for ethical reasons, all pharmacokinetic experiments were conducted in naive animals.

[2] = test system: arthritic mice (collagen-induced arthritis model); experiment: CIA in mice, first study: clinical score and paw swelling; type: in vivo, mouse; conditions: 10 days; CR6086 30 and 60 mg/kg, naproxen 60 mg/kg oral once daily; etanercept 10 mg/kg i.p. every other day
Experimental: Male DBA/1 mice were immunised by intradermal injection at the base of the tail with an emulsion of 200 μg of bCII in CFA containing 3 mg/ml Mycobacterium tuberculosis. Non-immunised mice served as the negative control of disease. Animals were monitored by visual inspection for appearance of peripheral oedema. […] Upon onset, animals were recruited and randomised. Recruitment was given a cut-off at day 40. Upon recruitment, arthritis clinical score was assigned, and oedema was measured via caliper.
In a first study, mice were randomised into the following treatment groups: vehicle, 30 mg/kg CR6086, 60 mg/kg CR6086, 60 mg/kg naproxen and 10 mg/kg etanercept. Animals received the test drugs for 10 days. CR6086 and naproxen were administered orally once daily, whereas etanercept was administered intraperitoneally every other day. Animals treated with vehicle, 60 mg/kg CR6086, naproxen and etanercept were additionally analysed for the proportion of populations of Th17 cells, Th1 cells, regulatory T cells, B cells, macrophages, neutrophils and dendritic cells by fluorescence-activated cell sorting (FACS) after collection of blood, draining lymph nodes and joints.
Oedema measurement was performed every day before treatment, and all animals were blindly scored for clinical signs of arthritis as follows: 0 = normal; 1 = slight swelling and/or erythema; 2 = pronounced oedematous swelling; and 3 = ankyloses and severe swelling. A score of 0.5 was given to swollen toe/toes or when inflammation was localised to one part of the foot. Each limb was measured separately, with a final score based on the sum of the scores from all four paws.

EP1 = molecular target: T1, EP1 (Homo sapiens, UniProt P34995); experiment: Eicosanoid receptor EP1 binding; conditions: [^3H]PGE2, HEK-293 cells, read-out: CR6086 Activity at 10µM
T1 construct: host or cells: HEK-293 cells
T1 sequence (P34995 whole entry): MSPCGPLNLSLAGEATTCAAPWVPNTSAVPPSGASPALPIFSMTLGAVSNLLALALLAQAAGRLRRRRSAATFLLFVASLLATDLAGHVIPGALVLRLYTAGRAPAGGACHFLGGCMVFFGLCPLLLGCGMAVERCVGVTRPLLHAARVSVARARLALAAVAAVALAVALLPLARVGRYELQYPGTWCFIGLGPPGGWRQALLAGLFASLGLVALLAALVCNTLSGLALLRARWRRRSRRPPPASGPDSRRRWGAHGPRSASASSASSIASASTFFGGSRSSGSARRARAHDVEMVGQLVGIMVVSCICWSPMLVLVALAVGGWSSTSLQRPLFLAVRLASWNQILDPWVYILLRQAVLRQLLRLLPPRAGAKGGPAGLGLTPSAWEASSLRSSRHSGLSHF

FP = FP (Homo sapiens, UniProt P43088); experiment: Eicosanoid receptor FP binding; conditions: [^3H]PGF2α, HEK-293 cells, read-out: CR6086 Activity at 10µM
FP, sequence (P43088 whole entry): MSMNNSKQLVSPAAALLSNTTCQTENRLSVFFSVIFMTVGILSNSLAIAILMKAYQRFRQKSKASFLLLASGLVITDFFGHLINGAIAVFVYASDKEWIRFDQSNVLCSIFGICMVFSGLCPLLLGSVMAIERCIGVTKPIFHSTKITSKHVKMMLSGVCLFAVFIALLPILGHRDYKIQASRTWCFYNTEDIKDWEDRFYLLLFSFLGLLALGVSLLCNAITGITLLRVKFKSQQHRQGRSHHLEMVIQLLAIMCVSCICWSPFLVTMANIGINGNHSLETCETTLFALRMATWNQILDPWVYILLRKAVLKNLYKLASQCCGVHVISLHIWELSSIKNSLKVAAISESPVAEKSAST

BZD (central) = experiment: Benzodiazepine receptor (central) binding; conditions: [^3H]flunitrazepam, Rat cerebral cortex
D3 = D3 (Homo sapiens, UniProt P35462); experiment: Dopamine receptor D3 binding; conditions: [^3H]methyl-spiperone, Human recombinant CHO cells, read-out: CR6086 Activity at 10µM
D3, sequence (P35462 whole entry): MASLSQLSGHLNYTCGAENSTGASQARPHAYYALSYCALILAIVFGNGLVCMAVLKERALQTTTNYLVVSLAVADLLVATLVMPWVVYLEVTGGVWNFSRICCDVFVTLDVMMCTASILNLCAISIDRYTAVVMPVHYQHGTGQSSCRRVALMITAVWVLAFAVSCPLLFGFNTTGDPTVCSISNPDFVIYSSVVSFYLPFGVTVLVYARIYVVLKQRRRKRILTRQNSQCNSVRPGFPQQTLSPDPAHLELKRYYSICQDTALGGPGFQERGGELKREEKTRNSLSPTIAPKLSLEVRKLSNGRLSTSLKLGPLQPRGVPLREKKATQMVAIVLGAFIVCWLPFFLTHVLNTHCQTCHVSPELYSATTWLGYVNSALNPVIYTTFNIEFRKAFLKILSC

M1 = M1 (Homo sapiens, UniProt P11229); experiment: Muscarinic acetylcholine receptor M1 binding; conditions: [^3H]pirenzepine, Human recombinant CHO cells, read-out: CR6086 Activity at 10µM
M1, sequence (P11229 whole entry): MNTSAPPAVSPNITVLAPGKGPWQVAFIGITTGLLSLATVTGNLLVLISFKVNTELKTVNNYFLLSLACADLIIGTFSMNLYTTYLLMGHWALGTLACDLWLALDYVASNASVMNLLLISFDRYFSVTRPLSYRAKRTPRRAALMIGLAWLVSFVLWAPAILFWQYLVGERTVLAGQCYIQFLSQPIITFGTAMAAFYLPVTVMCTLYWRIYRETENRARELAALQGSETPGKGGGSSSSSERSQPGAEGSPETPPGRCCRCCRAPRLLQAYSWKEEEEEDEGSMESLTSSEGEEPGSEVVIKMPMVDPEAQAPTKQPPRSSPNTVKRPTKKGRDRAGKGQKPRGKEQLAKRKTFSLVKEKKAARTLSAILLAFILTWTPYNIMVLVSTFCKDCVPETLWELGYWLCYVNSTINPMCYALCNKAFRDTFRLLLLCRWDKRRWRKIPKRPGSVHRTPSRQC

GABA (non-selective) = experiment: GABA receptor (non-selective) binding; conditions: [^3H]GABA, Rat cerebral cortex
NK2 = NK2 (Homo sapiens, UniProt P21452); experiment: Neurokinin receptor NK2 binding; conditions: [^125I]NKA, Human recombinant CHO cells, read-out: CR6086 Activity at 10µM
NK2, sequence (P21452 whole entry): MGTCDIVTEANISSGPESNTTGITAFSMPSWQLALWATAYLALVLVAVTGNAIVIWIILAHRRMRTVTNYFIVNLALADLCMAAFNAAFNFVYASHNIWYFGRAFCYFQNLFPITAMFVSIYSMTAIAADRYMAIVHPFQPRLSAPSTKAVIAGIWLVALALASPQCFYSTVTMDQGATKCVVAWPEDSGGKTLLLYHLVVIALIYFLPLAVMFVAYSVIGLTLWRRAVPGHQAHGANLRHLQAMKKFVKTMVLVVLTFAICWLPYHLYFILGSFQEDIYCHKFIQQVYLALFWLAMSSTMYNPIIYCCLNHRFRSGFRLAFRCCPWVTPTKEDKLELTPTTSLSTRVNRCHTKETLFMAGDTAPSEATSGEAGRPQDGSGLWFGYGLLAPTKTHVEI

NTS1 (NT1) = NTS1 (NT1) (Homo sapiens, UniProt P30989); experiment: NTS1 receptor binding; conditions: [^125I]Tyr^3-neurotensin, Human recombinant CHO cells, read-out: CR6086 Activity at 10µM
NTS1 (NT1), sequence (P30989 whole entry): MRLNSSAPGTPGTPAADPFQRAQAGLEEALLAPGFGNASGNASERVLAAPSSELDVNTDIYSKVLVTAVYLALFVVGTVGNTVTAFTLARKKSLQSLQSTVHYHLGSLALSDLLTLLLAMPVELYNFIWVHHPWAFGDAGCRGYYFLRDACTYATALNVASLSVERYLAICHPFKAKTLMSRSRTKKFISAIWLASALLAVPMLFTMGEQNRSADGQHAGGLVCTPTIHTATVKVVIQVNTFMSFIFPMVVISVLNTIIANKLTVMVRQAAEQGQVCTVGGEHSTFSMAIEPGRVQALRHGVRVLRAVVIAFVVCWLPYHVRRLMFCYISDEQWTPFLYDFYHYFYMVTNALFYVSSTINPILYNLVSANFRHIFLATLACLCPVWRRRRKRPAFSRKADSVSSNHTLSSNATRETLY

AR = AR (Homo sapiens, UniProt P10275, T878A); experiment: Nuclear receptor AR binding; conditions: [^3H]methyltrienolone, LNCaP cells, read-out: CR6086 Activity at 10µM
AR, sequence (P10275 whole entry T878A): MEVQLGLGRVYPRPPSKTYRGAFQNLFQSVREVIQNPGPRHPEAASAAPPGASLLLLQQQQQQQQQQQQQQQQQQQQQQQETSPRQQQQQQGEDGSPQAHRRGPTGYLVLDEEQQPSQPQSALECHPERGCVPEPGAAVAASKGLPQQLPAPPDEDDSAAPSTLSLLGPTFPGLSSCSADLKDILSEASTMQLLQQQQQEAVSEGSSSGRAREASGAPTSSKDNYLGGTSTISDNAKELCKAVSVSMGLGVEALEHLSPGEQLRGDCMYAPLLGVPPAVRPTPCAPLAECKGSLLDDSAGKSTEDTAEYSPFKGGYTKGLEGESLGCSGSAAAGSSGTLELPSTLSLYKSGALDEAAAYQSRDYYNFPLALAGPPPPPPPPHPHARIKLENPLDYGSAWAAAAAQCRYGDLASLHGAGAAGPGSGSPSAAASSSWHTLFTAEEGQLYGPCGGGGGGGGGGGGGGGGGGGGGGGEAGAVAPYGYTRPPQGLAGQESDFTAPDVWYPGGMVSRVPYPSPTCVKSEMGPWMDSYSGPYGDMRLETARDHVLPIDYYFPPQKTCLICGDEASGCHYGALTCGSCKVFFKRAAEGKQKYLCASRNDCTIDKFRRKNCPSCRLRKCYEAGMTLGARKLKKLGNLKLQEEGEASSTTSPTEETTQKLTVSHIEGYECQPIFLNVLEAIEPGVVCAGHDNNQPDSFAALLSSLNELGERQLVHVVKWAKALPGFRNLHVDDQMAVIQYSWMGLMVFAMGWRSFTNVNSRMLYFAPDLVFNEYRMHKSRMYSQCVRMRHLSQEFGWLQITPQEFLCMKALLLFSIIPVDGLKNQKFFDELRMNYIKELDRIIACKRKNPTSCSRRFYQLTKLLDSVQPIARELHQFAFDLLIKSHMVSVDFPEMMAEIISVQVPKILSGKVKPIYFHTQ

With O=C([O-])c1ccc(C2(NC(=O)[C@H]3CC4(CCN3Cc3ccc(C(F)(F)F)cc3)CC4)CC2)cc1.[Na+] [CR6086, Sodium (R)-4-(1-(6-(4-(trifluoromethyl)benzyl)-6-azaspiro[2.5]octane-5-carboxamido)cyclopropyl)benzoate] the IC50 (IL-6 gene expression) was 70 nM, the IC50 (VEGF gene expression) was 25 nM and the “unbound Cave” value ([1]; 3 mg/kg, 24-h dosing interval, single dose) was 27.6 ng/mL. The “unbound Cave adjusted for the accumulation ratio” value ([1]; 3 mg/kg, repeated doses) was 32.8 ng/mL, the “dose linearity of pharmacokinetics” value ([1]; 1–30 mg/kg oral) was “linear pharmacokinetics” and the oral absorption ([1]; 1–30 mg/kg oral) was “rapidly and completely absorbed”. For the same compound, the “accumulation ratio after repeated doses” value ([1]; male rats) was 1.19, the Cmax ([1]; 1 mg/kg) was 1250 ± 67 ng/mL and the AUC ([1]; 1 mg/kg, AUC4 for the dose of 1 mg/kg) was 2170 ± 338 ng·h/mL. It also gave a Tmax ([1]; 1 mg/kg) of 15 min, a Cmax ([1]; 3 mg/kg) of 3230 ± 173 ng/mL and a Tmax ([1]; 3 mg/kg) of 15 min. For the same compound, the AUC ([1]; 3 mg/kg) was 13700 ± 3990 ng·h/mL, the Cmax ([1]; 10 mg/kg) was 14500 ± 3400 ng/mL and the Tmax ([1]; 10 mg/kg) was 30 min. The AUC ([1]; 10 mg/kg) was 58000 ± 6730 ng·h/mL, the Cmax ([1]; 15 mg/kg) was 11900 ± 2040 ng/mL and the Tmax ([1]; 15 mg/kg) was 30 min. It also gave an AUC ([1]; 15 mg/kg) of 61600 ± 10600 ng·h/mL, a Cmax ([1]; 30 mg/kg) of 34500 ± 6400 ng/mL and a Tmax ([1]; 30 mg/kg) of 60 min. The AUC ([1]; 30 mg/kg) was 206000 ± 46000 ng·h/mL, the “effect on disease parameters (visual clinical score, paw swelling) vs vehicle” value [2] was “significantly improved” and the inhibition at 10 µM (EP1) was less than 20%. The inhibition at 10 µM (FP) was less than 20%, the “CR6086 Activity at 10µM” value (BZD (central)) was “IN (IN = < 20% displacement or inhibition (all tables))” and the inhibition at 10 µM (D3) was less than 20%. For the same compound, the inhibition at 10 µM (M1) was less than 20%, the “CR6086 Activity at 10µM” value (GABA (non-selective)) was “IN (IN = < 20% displacement or inhibition (all tables))” and the inhibition at 10 µM (NK2) was less than 20%. For the same compound, the inhibition at 10 µM (NTS1 (NT1)) was less than 20% and the inhibition at 10 µM (AR) was less than 20%.
